From patent publication US20250206730A1 (AUTOTELIC BIO INC., priority 2022, published 2025)
pIC50: −log10 of the molar value.

Legend:
ALK5 kinase = biological target: T1, ALK5 kinase (Homo sapiens, UniProt P36897); test: LanthaScreen Eu Kinase Binding Assay; details: Kinase Tracer 178, Eu-anti-GST Antibody, read-out: IC50 Enzyme
T1 sequence (P36897 34-503): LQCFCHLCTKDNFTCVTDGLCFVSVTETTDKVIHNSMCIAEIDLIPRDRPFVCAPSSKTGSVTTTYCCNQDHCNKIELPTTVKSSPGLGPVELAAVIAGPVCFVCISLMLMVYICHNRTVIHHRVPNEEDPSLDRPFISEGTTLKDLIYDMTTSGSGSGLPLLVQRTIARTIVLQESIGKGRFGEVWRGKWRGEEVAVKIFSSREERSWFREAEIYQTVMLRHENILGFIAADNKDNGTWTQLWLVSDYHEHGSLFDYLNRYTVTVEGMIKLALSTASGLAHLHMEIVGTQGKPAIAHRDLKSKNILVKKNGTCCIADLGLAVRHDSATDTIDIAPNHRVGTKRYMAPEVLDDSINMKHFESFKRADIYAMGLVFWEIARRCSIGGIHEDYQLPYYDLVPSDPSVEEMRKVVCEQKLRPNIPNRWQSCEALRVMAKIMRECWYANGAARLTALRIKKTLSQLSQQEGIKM
Description: [Example 1] LanthaScreen Eu Kinase Binding Assay
4 μL of 4× Test Compound in 4% DMSO and 4 μL of 4× Kinase in Kinase buffer were added to wells (low volume, white 384-well plate (Greiner Cat. #784207)). The plate was shaken for 30 seconds, centrifuged for 10 seconds at 1000 rpm, and incubated at RT for 30 minutes. Then, 4 μL of 4× Eu-anti-GST Antibody and 4 μL of 4× Kinase Tracer 178 were added to the wells. The plate was shaken for 30 seconds, centrifuged for 10 seconds at 1000 rpm, and incubated at RT for 60 minutes. Fluorescence was measured by a plate reader, Biotek Synergy H1 (Vermont, USA) under the following conditions. • Excitation: 340 nm (3 nm bandpass) • Kinase tracer emission: 665 nm (10 nm bandpass) • Eu Ab emission: 615 nm (10 nm bandpass) • Emission ratio=665 nm (tracer)/615 nm (Eu Ab) • The higher the binding affinity of compound to ALK5 kinase is, the less the emission ratio is.

TGF-β signaling = test: Assay for evaluating cellular inhibition of TGF-β signaling, 4T1 (SBE-luc2P) luciferase reporter; assay type: cell-based; details: Mus musculus, 4T1, 4T1 (SBE-luc2P) transient pool, 0.2% FBS, 2 h pre-treatment, TGF-β1 2 ng/mL 24 h; read-out: IC50 4T1 Cell
Description: [Example 2] Assay for Evaluating Cellular Inhibition of TGF-β Signaling
4T1 (SBE-luc2P) transient pool that have SBE-luc2P (hygro) expression plasmid or HEK293 (SBE reporter) stable cells (BPS bioscience) were seeded at 6×10^3 cells/well or 2.5×10^4 cells/well in 96-well plate, respectively. 4T1 (SBE-luc2P) transient pool were pre-treated with novel compound synthesized in Example 1 above in 0.2% FBS at approximately 60% confluence at 37° C. in 5% CO2. Also, HEK293 (SBE reporter) stable cells were pre-treated with each test compounds of formula in 0.5% FBS at approximately 80% confluence at 37° C. in 5% CO2. After 2 hours, cells were treated with TGF-β1 (2 ng/mL) for 24 h at 37° C. in 5% CO2. Cell lysates were prepared using Luciferase Assay (Promega) according to the manufacturer's instruction, and luminescence was measured by a plate reader, Biotek Synergy H1 (Vermont, USA).

| SMILES | pIC50 (ALK5 kinase) | pIC50 (TGF-β signaling) |
| --- | --- | --- |
| NS(=O)(=O)c1cccc(Nc2cc(Oc3sc(C(F)(F)F)nc3-c3ccccc3)ccn2)c1 [A-145, 3-((4-((4-Phenyl-2-(trifluoromethyl)thiazol-5-yl)oxy)pyridin-2-yl)amino)benzenesulfonamide] | > 7.00 | < 7.00 |
| Cc1nc(-c2ccccc2)c(Oc2ccnc(Nc3cc(C(N)=O)ccn3)c2)s1 [A-93, 2-((4-((2-Methyl-4-phenylthiazol-5-yl)oxy)pyridin-2-yl)amino)isonicotinamide] | > 7.00 | > 7.00 |
| NS(=O)(=O)c1cccc(Nc2cc(Oc3sc(NC4CC4)nc3-c3ccccc3)ccn2)c1 [A-45, 3-((4-((2-(Cyclopropylamino)-4-phenylthiazol-5-yl)oxy)pyridin-2-yl)amino)benzenesulfonamide] | > 7.00 | < 7.00 |
| CNC(=O)c1ccc(Nc2cc(Oc3sc(C4CC4)nc3-c3ccccc3)ccn2)cc1 [A-126, 4-((4-((2-Cyclopropyl-4-phenylthiazol-5-yl)oxy)pyridin-2-yl)amino)-N-methylbenzamide] | > 7.00 | > 7.00 |
| Nc1nc(-c2ccccc2)c(Oc2ccnc(Nc3ccc(C(=O)O)cc3)c2)s1 [A-39, 4-((4-((2-Amino-4-phenylthiazol-5-yl)oxy)pyridin-2-yl)amino)benzoic acid] | > 7.00 | < 7.00 |
| NS(=O)(=O)c1cccc(Nc2cc(Oc3sc(C4CC4)nc3-c3ccccc3)ccn2)c1 [A-116, 3-((4-((2-Cyclopropyl-4-phenylthiazol-5-yl)oxy)pyridin-2-yl)amino)benzenesulfonamide] | > 7.00 | > 7.00 |
| COc1nc(-c2ccccc2)c(Oc2ccnc(Nc3cccc(C(C)(C)O)c3)c2)s1 [A-141, 2-(3-((4-((2-Methoxy-4-phenylthiazol-5-yl)oxy)pyridin-2-yl)amino)phenyl)propan-2-ol] | > 7.00 | < 7.00 |
| NC(=O)c1ccc(Nc2cc(Oc3sc(C(F)(F)F)nc3-c3ccccc3)ccn2)nc1 [A-146, 6-((4-((4-Phenyl-2-(trifluoromethyl)thiazol-5-yl)oxy)pyridin-2-yl)amino)nicotinamide] | > 7.00 | > 7.00 |
| NC(=O)c1ccc(Nc2cc(Oc3sc(NC4CC4)nc3-c3ccccc3)ccn2)cc1 [A-47, 4-((4-((2-(Cyclopropylamino)-4-phenylthiazol-5-yl)oxy)pyridin-2-yl)amino)benzamide] | < 7.00 | < 7.00 |
| CC(C)(O)c1ccc(Nc2cc(Oc3sc(C4CC4)nc3-c3ccccc3)ccn2)cn1 [A-121, 2-(5-((4-((2-Cyclopropyl-4-phenylthiazol-5-yl)oxy)pyridin-2-yl)amino)pyridin-2-yl)propan-2-ol] | > 7.00 | < 7.00 |
| Cc1nc(-c2ccccc2)c(Oc2ccnc(Nc3cccc(S(=O)(=O)O)c3)c2)s1 [A-68, 3-((4-((2-Methyl-4-phenylthiazol-5-yl)oxy)pyridin-2-yl)amino)benzenesulfonic acid] | > 7.00 | < 7.00 |
| O=C(O)c1cccc(Nc2cc(Oc3sc(C4CC4)nc3-c3ccccc3)ccn2)n1 [A-134, 6-((4-((2-Cyclopropyl-4-phenylthiazol-5-yl)oxy)pyridin-2-yl)amino)picolinic acid] | > 7.00 | > 7.00 |
| CNc1nc(-c2ccccc2)c(Oc2ccnc(Nc3ccc(C(=O)O)cc3)c2)s1 [A-56, 4-((4-((2-(Methylamino)-4-phenylthiazol-5-yl)oxy)pyridin-2-yl)amino)benzoic acid] | > 7.00 | < 7.00 |
| Cc1nc(-c2ccccc2)c(Oc2ccnc(Nc3cccc(CC#N)c3)c2)s1 [A-111, 2-(3-((4-((2-Methyl-4-phenylthiazol-5-yl)oxy)pyridin-2-yl)amino)phenyl)acetonitrile] | > 7.00 | > 7.00 |
| CNc1nc(-c2ccccc2)c(Oc2ccnc(Nc3ccc(S(N)(=O)=O)cc3)c2)s1 [A-53, 4-((4-((2-(Methylamino)-4-phenylthiazol-5-yl)oxy)pyridin-2-yl)amino)benzenesulfonamide] | > 7.00 |  |
| NC(=O)c1cccc(Nc2cc(Oc3sc(NC4CC4)nc3-c3ccccc3)ccn2)c1 [A-46, 3-((4-((2-(Cyclopropylamino)-4-phenylthiazol-5-yl)oxy)pyridin-2-yl)amino)benzamide] | > 7.00 |  |

Now from value to molecule:

| pIC50 (ALK5 kinase) | pIC50 (TGF-β signaling) | SMILES |
| --- | --- | --- |
| > 7.00 | < 7.00 | CC(C)c1nc(-c2ccccc2)c(Oc2ccnc(Nc3ccnc(C(C)(C)O)c3)c2)s1 [A-223, 2-(4-((4-((2-Isopropyl-4-phenylthiazol-5-yl)oxy)pyridin-2-yl)amino)pyridin-2-yl)propan-2-ol] |
| > 7.00 | < 7.00 | CC(C)c1nc(-c2ccccc2)c(Oc2ccnc(Nc3cccc(C(N)=O)n3)c2)s1 [A-226, 6-((4-((2-Isopropyl-4-phenylthiazol-5-yl)oxy)pyridin-2-yl)amino)picolinamide] |
| > 7.00 | > 7.00 | CCc1nc(-c2cccc(C)n2)c(Oc2ccnc(Nc3ccnc(C(=O)NC)c3)c2)s1 [A-265, 4-((4-((2-Ethyl-4-(6-methylpyridin-2-yl)thiazol-5-yl)oxy)pyridin-2-yl)amino)-N-methylpicolinamide] |
| > 7.00 | > 7.00 | CCc1nc(-c2cccc(C)n2)c(Oc2ccnc(Nc3cccc(C(=O)NC)n3)c2)s1 [A-256, 6-((4-((2-Ethyl-4-(6-methylpyridin-2-yl)thiazol-5-yl)oxy)pyridin-2-yl)amino)-N-methylpicolinamide] |
| > 7.00 | < 7.00 | O=C(O)c1ccc(Nc2cc(Oc3sc(C4CCCC4)nc3-c3ccccc3)ccn2)cc1 [A-175, 4-((4-((2-Cyclopentyl-4-phenylthiazol-5-yl)oxy)pyridin-2-yl)amino)benzoic acid] |
| > 7.00 | < 7.00 | CC(C)c1nc(-c2ccccc2)c(Oc2ccnc(Nc3ccc(S(N)(=O)=O)cc3)c2)s1 [A-221, 4-((4-((2-Isopropyl-4-phenylthiazol-5-yl)oxy)pyridin-2-yl)amino)benzenesulfonamide] |
| > 7.00 | < 7.00 | CCc1nc(-c2ccccc2)c(Oc2ccnc(Nc3cccc(C(=O)O)c3)c2)s1 [A-194, 3-((4-((2-Ethyl-4-phenylthiazol-5-yl)oxy)pyridin-2-yl)amino)benzoic acid] |
| > 7.00 | < 7.00 | CN(C)c1nc(-c2ccccc2)c(Oc2ccnc(Nc3cccc(C(=O)O)c3)c2)s1 [A-167, 3-((4-((2-(Dimethylamino)-4-phenylthiazol-5-yl)oxy)pyridin-2-yl)amino)benzoic acid] |
| > 7.00 | > 7.00 | Cc1cccc(-c2nc(N(C)C)sc2Oc2ccnc(Nc3cccc(S(N)(=O)=O)c3)c2)n1 [A-283, 3-((4-((2-(Dimethylamino)-4-(6-methylpyridin-2-yl)thiazol-5-yl)oxy)pyridin-2-yl)amino)benzenesulfonamide] |
| > 7.00 | < 7.00 | CN(C)c1nc(-c2ccccc2)c(Oc2ccnc(Nc3cccc(S(N)(=O)=O)c3)c2)s1 [A-154, 3-((4-((2-(Dimethylamino)-4-phenylthiazol-5-yl)oxy)pyridin-2-yl)amino)benzenesulfonamide] |
| < 7.00 | < 7.00 | CC(C)c1nc(-c2ccccc2)c(Oc2ccnc(Nc3cccc(C(C)(C)O)c3)c2)s1 [A-219, 2-(3-((4-((2-Isopropyl-4-phenylthiazol-5-yl)oxy)pyridin-2-yl)amino)phenyl)propan-2-ol] |
| > 7.00 | > 7.00 | Cc1cccc(-c2nc(C(F)(F)F)sc2Oc2ccnc(Nc3ccc(C(N)=O)cn3)c2)n1 [A-290] |
| > 7.00 | > 7.00 | CCc1nc(-c2ccccc2)c(Oc2ccnc(Nc3ccc(C(=O)O)cc3)c2)s1 [A-195, 4-((4-((2-Ethyl-4-phenylthiazol-5-yl)oxy)pyridin-2-yl)amino)benzoic acid] |
| < 7.00 |  | NC(=O)c1ccc(Nc2cc(Oc3sc(C4CCCC4)nc3-c3ccccc3)ccn2)nc1 [A-173, 6-((4-((2-Cyclopentyl-4-phenylthiazol-5-yl)oxy)pyridin-2-yl)amino)nicotinamide] |
